Reference: patent publication US20250024871A1, “AMIDE COMPOUNDS AND THEIR USE AS FLAVOR MODIFIERS” (Firmenich Incorporated, priority 2021, published 2025)
pEC50: −log10 of the molar value.

Molecular target: T1, T1R umami taste receptor (Homo sapiens, UniProt Q7RTX0+Q7RTX1)
T1 sequence (Q7RTX1 21-841): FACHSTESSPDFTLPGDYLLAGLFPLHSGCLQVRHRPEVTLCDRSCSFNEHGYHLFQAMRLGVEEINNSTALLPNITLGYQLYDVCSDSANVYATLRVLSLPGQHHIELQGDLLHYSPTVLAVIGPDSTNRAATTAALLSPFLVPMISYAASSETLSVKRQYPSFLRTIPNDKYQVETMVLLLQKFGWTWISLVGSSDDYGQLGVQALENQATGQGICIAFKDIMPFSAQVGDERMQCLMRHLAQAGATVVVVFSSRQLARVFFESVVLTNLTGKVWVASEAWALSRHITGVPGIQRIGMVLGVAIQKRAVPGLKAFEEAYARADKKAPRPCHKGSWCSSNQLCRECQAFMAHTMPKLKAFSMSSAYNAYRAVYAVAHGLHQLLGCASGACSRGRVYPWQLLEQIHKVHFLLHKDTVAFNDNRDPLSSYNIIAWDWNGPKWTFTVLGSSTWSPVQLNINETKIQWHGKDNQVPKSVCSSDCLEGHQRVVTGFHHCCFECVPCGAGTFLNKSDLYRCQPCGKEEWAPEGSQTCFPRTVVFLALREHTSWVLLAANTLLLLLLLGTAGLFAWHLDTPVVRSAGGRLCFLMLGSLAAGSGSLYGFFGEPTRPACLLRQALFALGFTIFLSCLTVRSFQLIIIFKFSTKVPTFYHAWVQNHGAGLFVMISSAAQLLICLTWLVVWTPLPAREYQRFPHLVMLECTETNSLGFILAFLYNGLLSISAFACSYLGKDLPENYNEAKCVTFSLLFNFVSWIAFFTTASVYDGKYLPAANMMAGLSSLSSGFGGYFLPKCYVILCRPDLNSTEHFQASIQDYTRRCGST
T1 sequence (Q7RTX0 21-852): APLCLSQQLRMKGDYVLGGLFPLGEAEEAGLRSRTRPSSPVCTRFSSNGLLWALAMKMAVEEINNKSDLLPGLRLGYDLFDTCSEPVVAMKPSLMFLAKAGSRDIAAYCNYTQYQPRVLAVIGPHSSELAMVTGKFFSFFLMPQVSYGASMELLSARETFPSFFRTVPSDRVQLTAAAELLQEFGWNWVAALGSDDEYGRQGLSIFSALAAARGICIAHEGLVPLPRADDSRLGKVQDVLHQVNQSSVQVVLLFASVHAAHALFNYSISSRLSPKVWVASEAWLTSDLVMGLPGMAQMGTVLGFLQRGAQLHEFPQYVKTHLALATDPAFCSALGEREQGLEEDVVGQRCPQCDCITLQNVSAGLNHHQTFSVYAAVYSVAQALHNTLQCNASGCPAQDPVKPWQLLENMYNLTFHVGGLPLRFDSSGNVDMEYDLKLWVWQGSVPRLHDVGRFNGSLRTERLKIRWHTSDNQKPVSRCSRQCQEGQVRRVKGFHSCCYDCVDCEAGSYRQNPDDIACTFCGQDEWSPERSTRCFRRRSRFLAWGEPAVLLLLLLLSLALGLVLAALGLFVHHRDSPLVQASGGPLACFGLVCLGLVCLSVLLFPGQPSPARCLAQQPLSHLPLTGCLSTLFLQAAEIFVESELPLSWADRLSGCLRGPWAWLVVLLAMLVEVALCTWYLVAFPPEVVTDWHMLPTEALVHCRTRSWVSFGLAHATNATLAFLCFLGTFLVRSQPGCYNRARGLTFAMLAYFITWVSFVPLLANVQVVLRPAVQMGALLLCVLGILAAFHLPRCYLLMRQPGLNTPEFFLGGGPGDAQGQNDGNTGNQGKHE
Experiment: in vitro cell-based assay having cells that express the T1R umami taste receptor (enhancement of MSG)
Conditions: for pEC50: cells expressing T1R umami taste receptor, read-out: EC50 for enhancement of MSG binding
Description: Each of Compounds 101-183 was synthesized according to one of the general procedures set forth above in Examples 1. Thereafter, the compounds were tested in an in vitro cell-based assay having cells that express the T1R umami taste receptor. Dose-binding curves were recorded and the EC50 was determined for enhancement of MSG binding. Table 2 sets forth the calculated EC50 values for certain tested compounds as well as the MSG enhancement ratio at a particular concentration.

SMILES | pEC50 | MSG Enh. Ratio (compound at 50 μM) | further results
COC(=O)[C@H](Cc1ccccc1)NC(=O)/C=C/c1ccc(OC)cc1 [Compound 146, Methyl (E)-(3-(4-methoxyphenyl)acryloyl)-L-phenylalaninate] | 6.00 | – | MSG Enh. Ratio (compound at 0.3 μM): 6.4 @
C=C(C)C1CC=C(C(=O)N[C@@H](Cc2ccccc2)C(=O)OC)CC1 (stereo partly drawn) [Compound 166, Methyl (4-(prop-1-en-2-yl)cyclohex-1-ene-1-carbonyl)-L-phenylalaninate] | < 4.30 | 4.6 @ | –
COC(=O)[C@H](Cc1ccccc1)NC(=O)/C=C/c1cc(OC)ccc1OC [Compound 157, Methyl (E)-(3-(2,5-dimethoxyphenyl)acryloyl)-L-phenylalaninate] | < 4.30 | 3.1 @ | –
COC(=O)[C@H](Cc1ccccc1)NC(=O)/C=C/c1ccccc1OC [Compound 152, Methyl (E)-(3-(2-methoxyphenyl)acryloyl)-L-phenylalaninate] | 4.57 | – | MSG Enh. Ratio (compound at 10 μM): 2.8 @
COC(=O)CC[C@H](NC(=O)/C=C/c1ccccc1)C(=O)OC [Compound 139, Dimethyl cinnamoyl-L-glutamate] | – | 3.82 @ | –
CCC/C=C/C(=O)N[C@@H](Cc1ccccc1)C(=O)OC [Compound 176, Methyl (E)-hex-2-enoyl-L-phenylalaninate] | – | 8.4 @ | –
CCOC(=O)[C@H](Cc1ccccc1)NC(=O)/C=C/c1ccc(OC)cc1 [Compound 148, Ethyl (E)-(3-(4-methoxyphenyl)acryloyl)-L-phenylalaninate] | 5.00 | – | MSG Enh. Ratio (compound at 1 μM): 3.5 @
CCOC(=O)[C@H](Cc1ccccc1)NC(=O)/C=C/c1ccc(OCC)cc1 [Compound 154, Ethyl (E)-(3-(4-ethoxyphenyl)acryloyl)-L-phenylalaninate] | 5.52 | – | MSG Enh. Ratio (compound at 3 μM): 2.0 @
C/C=C/C=C/C(=O)N[C@@H](CCC(=O)OCC)C(=O)OCC [Compound 182, Diethyl ((2E,4E)-hexa-2,4-dienoyl)-L-glutamate] | < 4.30 | 3.4 @ | –
CCOC(=O)[C@H](CC(C)C)NC(=O)c1ccc(C)c(C)c1 [Compound 116, Ethyl (3,4-dimethylbenzoyl)-L-leucinate] | – | – | MSG Enh. Ratio (compound at 3 μM): 3.7 @
CCOC(=O)CC[C@H](NC(=O)/C=C/c1ccc(OC)cc1)C(=O)OCC [Compound 151, Diethyl (E)-(3-(4-methoxyphenyl)acryloyl)-L-glutamate] | 5.70 | – | MSG Enh. Ratio (compound at 3 μM): 4.2 @
COC(=O)[C@H](C)NC(=O)/C=C/c1ccc(OC)cc1 [Compound 142, Methyl (E)-(3-(4-methoxyphenyl)acryloyl)-L-alaninate] | < 4.30 | 3.3 @ | –

The next lines start with results.

pEC50 | MSG Enh. Ratio (compound at 50 μM) | SMILES | further results
6.15 | – | COC(=O)[C@@H](CC(C)C)NC(=O)c1ccc(C)c(C)c1 [Compound 114, Methyl (3,4-dimethylbenzoyl)-D-leucinate] | –
4.44 | 3.6 @ | CCOC(=O)[C@@H](NC(=O)c1ccc(OC)cc1)C(C)C [Compound 106, Ethyl (4-methoxybenzoyl)-L-valinate] | –
7.00 | – | COC(=O)[C@@H](CC(C)C)NC(=O)/C=C/c1ccc(OC)cc1 [Compound 144, Methyl (E)-(3-(4-methoxyphenyl)acryloyl)-D-leucinate] | –
4.82 | – | CCOC(=O)[C@@H](NC(=O)/C=C/c1ccccc1OC)C(C)C [Compound 143, Ethyl (E)-(3-(2-methoxyphenyl)acryloyl)-L-valinate] | MSG Enh. Ratio (compound at 10 μM): 4.4 @
< 4.30 | 4.4 @ | CCC/C=C/C(=O)N[C@H](C(=O)OCC)C(C)C [Compound 175, Ethyl (E)-hex-2-enoyl-L-valinate] | –
> 5.70 | – | CCOC(=O)[C@@H](CC(C)C)NC(=O)c1ccc(C)cc1 [Compound 102, Ethyl (4-methylbenzoyl)-D-leucinate] | –
6.00 | – | CCOC(=O)[C@@H](NC(=O)/C=C/c1ccc(OCC)cc1)C(C)C [Compound 153, Ethyl (E)-(3-(4-ethoxyphenyl)acryloyl)-L-valinate] | MSG Enh. Ratio (compound at 0.3 μM): 7.4 @
> 5.70 | – | COC(=O)[C@@H](CC(C)C)NC(=O)c1ccc(C)cc1 [Compound 101, Methyl (4-methylbenzoyl)-D-leucinate] | –
– | 4.3 @ | CCOC(=O)[C@@H](NC(=O)/C=C/c1ccccc1)[C@@H](C)CC [Compound 137, Ethyl cinnamoyl-L-isoleucinate] | –
< 4.30 | 3.4 @ | COC(=O)[C@H](CC(C)C)NC(=O)c1ccc(C)cc1 [Compound 103, Methyl (4-methylbenzoyl)-L-leucinate] | –
< 4.30 | 5.8 @ | CCOC(=O)[C@@H](NC(=O)/C=C/c1ccc2c(c1)OCO2)C(C)C [Compound 159, Ethyl (E)-(3-(benzo[d][1,3]dioxol-5-yl)acryloyl)-L-valinate] | –
< 4.70 | – | CCOC(=O)CC[C@H](NC(=O)/C=C/c1ccc2c(c1)OCO2)C(=O)OCC [Compound 161, Diethyl (E)-(3-(benzo[d][1,3]dioxol-5-yl)acryloyl)-L-glutamate] | MSG Enh. Ratio (compound at 10 μM): 2.9 @
5.70 | – | CCOC(=O)CC[C@H](NC(=O)c1ccc(C)c(C)c1)C(=O)OCC [Compound 122, Diethyl (3,4-dimethylbenzoyl)-L-glutamate] | MSG Enh. Ratio (compound at 3 μM): 4.9 @
– | 5.3 @ | CCOC(=O)[C@H](CC(C)C)NC(=O)/C=C/c1ccccc1 [Compound 135, Ethyl cinnamoyl-L-leucinate] | –
7.00 | – | CCOC(=O)[C@@H](CC(C)C)NC(=O)c1ccc(C)c(C)c1 [Compound 115, Ethyl (3,4-dimethylbenzoyl)-D-leucinate] | –
